The target in experiment [1] is T1, Casein kinase I isoform alpha (Homo sapiens, UniProt P48729). As to the kind of experiment: CSNK1A1-Inhibitory Activity Assay (Low ATP). On the procedure:
For the assay 50 nl of a 100-fold concentrated solution of the test compound in DMSO was pipetted into a white 1536-well microtiter plate (Greiner Bio-One, Frickenhausen, Germany), 2 μL of a solution of CSNK1A1 in aqueous assay buffer [50 mM HEPES pH 7.5, 10% (v/v) glycerol, 10 mM MgCl2, 50 mM NaCl, 1 mM dithiothreitol, 0.01% (w/v) bovine serum albumin, 0.01% (v/v) Triton X-100] were added and the mixture was incubated for 15 min at 22° C. to allow pre-binding of the test compounds to the enzyme before the start of the kinase reaction. Then the kinase reaction was started by the addition of 3 μL of a solution of ATP (1.67 μM=>final conc. in the 5 μL assay volume is 1 μM) and peptide substrate (50 μM=>final conc. in the 5 μL assay volume is 30 μM) in assay buffer and the resulting mixture was incubated for a reaction time of 30 min at 22° C. The concentration of CSNK1A1 was adjusted depending of the activity of the enzyme lot and was chosen appropriate to have the assay in the linear range, a typical concentrations are about 0.0375 ng/μL. […] Subsequently 2.5 μL of the “kinase detection reagent” (1.2 fold more concentrated than recommended by the producer) were added, the resulting mixture was incubated at 22° C. for 1 h and then the luminescence measured with a suitable measurement instrument (e.g. Viewlux™ from Perkin-Elmer). […]

For experiment [2], the target named is Casein kinase I isoform delta (Homo sapiens, UniProt P48730). Kind of experiment: CSNK1D-Inhibitory Activity Assay. On the procedure: For the assay 50 nl of a 100-fold concentrated solution of the test compound in DMSO was pipetted into a white 1536-well microtiter plate (Greiner Bio-One, Frickenhausen, Germany), 2 μL of a solution of CSNK1D in aqueous assay buffer [50 mM HEPES pH 7.5, 10% (v/v) glycerol, 10 mM MgCl2, 50 mM NaCl, 1 mM dithiothreitol, 0.01% (w/v) bovine serum albumin, 0.01% (v/v) Triton X-100] were added and the mixture was incubated for 15 min at 22° C. to allow pre-binding of the test compounds to the enzyme before the start of the kinase reaction. Then the kinase reaction was started by the addition of 3 μL of a solution of ATP (1.67 μM=>final conc. in the 5 μL assay volume is 1 μM) and peptide substrate (50 μM=>final conc. in the 5 μL assay volume is 30 μM) in assay buffer and the resulting mixture was incubated for a reaction time of 30 min at 22° C. The concentration of CSNK1D was adjusted depending of the activity of the enzyme lot and was chosen appropriate to have the assay in the linear range, a typical concentration is about 0.5 ng/μL. […] Subsequently 2.5 μL of the “kinase detection reagent” (1.2 fold more concentrated than recommended by the producer) were added, the resulting mixture was incubated at 22° C. for 1 h and then the luminescence measured with a suitable measurement instrument (e.g. Viewlux™ from Perkin-Elmer). […]
Sequence of Casein kinase I isoform delta (P48730 whole entry, canonical isoform): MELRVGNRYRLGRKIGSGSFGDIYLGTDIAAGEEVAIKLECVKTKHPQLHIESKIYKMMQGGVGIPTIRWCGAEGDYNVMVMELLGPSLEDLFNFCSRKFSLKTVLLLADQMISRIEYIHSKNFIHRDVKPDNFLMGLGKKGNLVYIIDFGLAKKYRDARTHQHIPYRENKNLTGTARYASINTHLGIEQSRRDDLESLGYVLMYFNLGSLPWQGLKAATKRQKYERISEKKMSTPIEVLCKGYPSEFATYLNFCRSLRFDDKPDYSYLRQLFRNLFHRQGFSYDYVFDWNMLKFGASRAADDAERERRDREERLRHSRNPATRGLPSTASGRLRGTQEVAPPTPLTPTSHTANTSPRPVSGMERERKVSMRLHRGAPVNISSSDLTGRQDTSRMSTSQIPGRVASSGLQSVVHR

In experiment [3] the target is Casein kinase I isoform gamma-3 (Homo sapiens, UniProt Q9Y6M4). Kind of experiment: CSNK1G3-Inhibitory Activity Assay. On the procedure:
For the assay 50 nl of a 100 fold concentrated solution of the test compound in DMSO was pipetted into a white 1536-well microtiter plate (Greiner Bio-One, Frickenhausen, Germany), 2 μL of a solution of CSNK1G3 in aqueous assay buffer [50 mM HEPES pH 7.5, 10% (v/v) glycerol, 10 mM MgCl2, 50 mM NaCl, 1 mM dithiothreitol, 0.01% (w/v) bovine serum albumin, 0.01% (v/v) Triton X-100] were added and the mixture was incubated for 15 min at 22° C. to allow pre-binding of the test compounds to the enzyme before the start of the kinase reaction. Then the kinase reaction was started by the addition of 3 μL of a solution of ATP ([…]) and peptide substrate (50 μM=>final conc. in the 5 μL assay volume is 30 μM) in assay buffer and the resulting mixture was incubated for a reaction time of 30 min at 22° C. The concentration of CSNK1G3 was adjusted depending of the activity of the enzyme lot and was chosen appropriate to have the assay in the linear range, a typical concentration is about 0.06 ng/μL. […] Subsequently 2.5 μL of the “kinase detection reagent” (1.2 fold more concentrated than recommended by the producer) were added, the resulting mixture was incubated at 22° C. for 1 h and then the luminescence measured with a suitable measurement instrument (e.g. Viewlux™ from Perkin-Elmer). […]

Experiment [4] deals with T1, Casein kinase I isoform alpha. Kind of experiment: CSNK1A1-Inhibitory Activity Assay (High ATP). On the procedure:
For the assay 50 nl of a 100 fold concentrated solution of the test compound in DMSO was pipetted into a white low volume 384-well microtiter plate (Greiner Bio-One, Frickenhausen, Germany), 2 μL of a solution of CSNK1A1 in aqueous assay buffer [50 mM HEPES pH 7.5, 10% (v/v) glycerol, 10 mM MgCl2, 50 mM NaCl, 1 mM dithiothreitol, 0.01% (w/v) bovine serum albumin, 0.01% (v/v) Triton X-100] were added and the mixture was incubated for 15 min at 22° C. to allow pre-binding of the test compounds to the enzyme before the start of the kinase reaction. Then the kinase reaction was started by the addition of 3 μL of a solution of ATP (1.67 mM=>final conc. in the 5 μL assay volume is 1 mM) and peptide substrate (167 μM=>final conc. in the 5 μL assay volume is 100 μM) in assay buffer and the resulting mixture was incubated for a reaction time of 30 min at 22° C. The concentration of CSNK1A1 was adjusted depending of the activity of the enzyme lot and was chosen appropriate to have the assay in the linear range, a typical concentration is about 0.4 ng/μL. […] Subsequently 2.5 μL of the “kinase detection reagent” (1.2 fold more concentrated than recommended by the producer) were added, the resulting mixture was incubated at 22° C. for 1 h and then the luminescence measured with a suitable measurement instrument (e.g. Viewlux™ from Perkin-Elmer). […]

T1 sequence (P48729 whole entry, canonical isoform): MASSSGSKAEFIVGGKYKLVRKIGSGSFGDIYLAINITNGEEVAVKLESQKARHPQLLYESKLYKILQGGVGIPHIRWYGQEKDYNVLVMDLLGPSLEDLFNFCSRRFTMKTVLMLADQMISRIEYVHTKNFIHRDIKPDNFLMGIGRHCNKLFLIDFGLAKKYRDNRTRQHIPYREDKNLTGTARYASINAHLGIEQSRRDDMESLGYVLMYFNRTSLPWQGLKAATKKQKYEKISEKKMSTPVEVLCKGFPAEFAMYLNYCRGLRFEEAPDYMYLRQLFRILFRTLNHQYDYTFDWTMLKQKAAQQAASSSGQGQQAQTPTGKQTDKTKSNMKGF
Sequence of Casein kinase I isoform gamma-3 (Q9Y6M4 whole entry, canonical isoform): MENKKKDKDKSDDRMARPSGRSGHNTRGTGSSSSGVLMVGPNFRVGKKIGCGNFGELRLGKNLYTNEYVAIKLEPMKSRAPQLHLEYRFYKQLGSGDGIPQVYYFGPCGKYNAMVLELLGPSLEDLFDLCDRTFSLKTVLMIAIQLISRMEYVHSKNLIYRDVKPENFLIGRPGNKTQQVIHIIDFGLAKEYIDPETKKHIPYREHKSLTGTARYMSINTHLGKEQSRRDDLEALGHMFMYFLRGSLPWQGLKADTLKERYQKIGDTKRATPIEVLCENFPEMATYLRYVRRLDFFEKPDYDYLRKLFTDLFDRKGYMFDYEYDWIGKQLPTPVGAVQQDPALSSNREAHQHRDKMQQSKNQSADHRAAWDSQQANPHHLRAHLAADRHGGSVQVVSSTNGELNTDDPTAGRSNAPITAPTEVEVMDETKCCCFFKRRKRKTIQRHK

By IC50 is commonly meant the midpoint of a concentration-inhibition curve. A higher IC50 goes with lower potency. With `O=C(Cc1cnco1)Nc1cc(-c2[nH]c3cccnc3c2-c2ccccn2)ccn1` [US20250188075, Example 4], the IC50 in experiment [1] was 1.82 nM; in experiment [2] it was 5.22 nM; in experiment [3], 50.3 nM; in experiment [4] it was 47 nM.

Source of the values: BindingDB's records for patent US20250188075 (The Broad Institute, 2025).
